{"source": "patent US11707445B2", "about": "“Composition for blocking angiogenesis” (Indiana University Research and Technology Corporation, priority 2015, dated 2023)", "key": {"[1]": {"test_system": "pre-existing retinal vasculature", "test": "Staining of pre-existing retinal vasculature (isolectin B4 retina flatmounts)", "format": "in vivo, C57BL/6J mice", "conditions": "14 days after 100 μM intravitreal injection, vs vehicle control"}, "CNV lesions": {"test_system": "CNV lesions", "test": "Laser-induced choroidal neovascularization (L-CNV) model", "format": "in vivo, C57BL/6J mice", "conditions": "for reduction in CNV lesion volume (Z-stack images of agglutinin-stained choroidal flatmounts): day 14, vs vehicle control; for reduction of CNV lesion volume: day 14, vs control eyes, P<0.01", "method": "(§1) All mouse experiments followed the guidelines of the Association for Research in Vision and Ophthalmology Statement for the Use of Animals in Ophthalmic and Visual Research and were approved by the Indiana University School of Medicine Institutional Animal Care and Use Committee. Wild-type female C57BL/6J mice, 6-8 weeks of age, were purchased from the Jackson Laboratory (Bar Harbor, Me.). Intraperitoneal injections of 17.5 mg/kg ketamine hydrochloride and 2.5 mg/kg xylazine mixture were used for anesthesia.\n(§2) Injections were given under anesthesia in a 0.5 μL volume using a 33-gauge needle. The needle was kept in place for 1 minute to prevent the reflux of solution when the needle was removed. SH-11037 was dissolved in DMSO then diluted in PBS to a final concentration of 0.5% DMSO. Eyes were numbed with tetracaine solution before the injection, and triple antibiotic ointment was used immediately after the injection to prevent infection. A masked researcher undertook imaging and analysis to avoid bias.\nLaser photocoagulation was performed as described in Sulaiman et al., J Ocul Pharmacol Ther, 2015 and Poor et al., Invest Opthalmol Vis Sci, 2014 55(10): 6525-34. Briefly, eyes were dilated using 1% tropicamide, then underwent laser treatment using 50 μm spot size, 50 ms duration, and 250 mW pulses of an ophthalmic argon green laser, wavelength 532 nm, coupled to a slit lamp. A coverslip was used to allow viewing of the posterior pole of the eye. Each eye received 3 laser burns centered around the optic nerve at 12, 3, and 9 o'clock positions. The appearance of a bubble at the site of laser application was used to identify laser-induced damage of Bruch's membrane. Lesions in which bubbles were not observed were excluded from analysis. The effect of SH-11037 on the L-CNV model using final estimated vitreal concentrations of 0.1, 0.3, 1, or 10 μM SH-11037 was tested. Anti-mouse VEGF164 neutralizing antibody (R&D Systems, Minneapolis, Minn.) was tested at 0.2, 1, and 5 ng/eye. Vehicle (PBS+0.5% DMSO) was used as a negative control. All injections were given a single time, immediately after laser treatment. In testing the effects of SH-11037 on existing L-CNV lesions, vehicle, anti-VEGF164, and SH-11037 (10 μM) injections were given a single time, 5 days post laser.\nOptical coherence tomography (OCT) was performed at the indicated times using the Micron III intraocular imaging system (Phoenix Research Labs, Pleasanton, Calif.). Before the procedure, eyes were dilated with 1% tropicamide solution (Alcon, Fort Worth, Tex.) and lubricated with hypromellose ophthalmic demulcent solution (Gonak) (Akorn, Lake Forest, Ill.). Mice were then placed on a custom heated stage that moves freely to position the mouse eye for imaging. Several horizontal and vertical images were taken per lesion to allow calculation of CNV lesion volume. Three-dimensional quantification of CNV lesion volumes was performed using an ellipsoid quantification method as described in Sulaiman et al., J Ocul Pharmacol Ther, 2015, 31(8):447-54. FA was performed 14 days post laser by intraperitoneal injections of 50 μL of 25% fluorescein sodium (Fisher Scientific, Pittsburgh, Pa.). Fundus images were taken using the Micron III system and Streampix software.\nChoroidal flatmount preparation, staining, and imaging were done as described in Sulaiman et al., J Ocul Pharmacol Ther, 2015, 31(8):447-54. ImageJ software was used to analyze Z-stack images; the summation of the whole stained area in each section, multiplied by the distance between sections (3 μm) was used as an index for the CNV lesion volume. The volumes of the 3 lesions in each eye were averaged and considered as an n=1 for statistical analysis."}, "retina [2]": {"test_system": "retina", "test": "In vivo toxicity of intravitreally injected SH-11037 (histology, immunofluorescence)", "set-up": "species or system C57BL/6J mice", "method": "as §1, §2\nToxicity of intravitreally injected SH-11037 was initially assessed by histology and immunofluorescence. The presence of acute ocular toxicity was investigated by injecting SH-11037 at different concentrations (0.1, 1, 10, and 100 μM), while long-term effects were tested by injecting 10 μM SH-11037. Mice were sacrificed 3 and 14 days post injections, respectively. Eyes were enucleated and fixed in 4% PFA overnight, and then the eyes were paraffin embedded and sectioned at 5 μm thickness by the Indiana University School of Medicine Histology Core. Mayer's hematoxylin and eosin (H&E) staining was performed, and retinal morphology was quantified by calculating the ratio of A (the distance from the ganglion cell layer to the outer edge of the inner nuclear layer) to B (the distance from the ganglion cell layer to the outer edge of the outer nuclear layer).\nFor immunofluorescence, sections were deparaffinised with xylenes and ethanol series and boiled in citrate buffer for 5 minutes. […]"}, "[3]": {"test_system": "retinal neovascularization", "conditions": "in vivo; cited from earlier work"}, "mouse choroidal tissues": {"test_system": "mouse choroidal tissues", "test": "Choroidal sprouting assay (ex vivo)", "format": "cell-based, C57Bl/6J mice", "method": "Sprouting of choroidal layers was tested as previously described in Shao et a., PLoS One, 2013 8(7): e69552. Briefly, 6-8 week old C57Bl/6J mice eyes were enucleated immediately after euthanasia. Peripheral parts of the choroid/sclera layer were separated and cut into pieces. Choroid fragments were then placed on growth factor-reduced Matrigel™ (30 μL/well; BD Biosciences, San Jose, Calif.) in 24-well plates. The plates were then incubated at 37° C. for about 10 minutes to allow the Matrigel to solidify. Endothelial Growth Medium (EGM-2) was prepared by mixing the contents of an EGM-2 “Bullet Kit” (Cat no. CC-4176) with Endothelial Basal Medium (EBM) (Lonza, Walkersville, Md.). Penicillin-streptomycin and 2.5 mg/mL Plasmocin were added to the final medium and used for this assay. Medium (500 μL) was added to each well of the plate and incubated at 37° C. with 5% CO2 for 72 hours before any treatments were added. Medium was changed after 48 hours. SH-11037 was synthesized as taught in WO2014/182695 (incorporated by reference to the extent it is consistent herewith) and dissolved in DMSO and then tested at 0.03, 0.3, and 1 μM concentrations for 48 hours. The final concentration of DMSO in each well was 0.2%. Trypan blue 0.4% solution (Fisher Scientific, Pittsburgh, Pa., USA) was used to assess cell viability. Images were taken using an EVOS-fl digital microscope (AMG, Mill Creek, Wash., USA) and data were analyzed as the sprouting distance in four different directions using ImageJ software v. 1.48V."}, "[4]": {"test_system": "human retinal endothelial cells (HRECs)", "conditions": "cited from earlier work"}, "neural retina function": {"test_system": "neural retina function", "test": "Retinal electrophysiology (ERG) after intravitreal injection", "format": "in vivo, C57BL/6J mice", "conditions": "14 days after 100 μM SH-11037 injections, relative to control eyes", "method": "as §1\nInjections were given under anesthesia in a 0.5 μL volume using a 33-gauge needle. The needle was kept in place for 1 minute to prevent the reflux of solution when the needle was removed. […]\nElectroretinograms (ERG) were obtained from animals 14 days post intravitreal injection of 100 μM SH-11037, 0.2 ng mouse anti-VEGF neutralizing antibody (R&D Systems, Minneapolis, Minn., USA)+0.3 μM SH-11037, or vehicle control and performed as described in Cai et al., EMBO Mol Med, 2012 4(9):980-91. Briefly, scotopic rod recordings were performed on overnight dark-adapted mice, with 10 increasing light intensities of white light and responses were recorded with a visual electrodiagnostic system (UTAS-E 2000; LKC Technologies, Gaithersburg, Md.). […] Ten responses were recorded and averaged at each light intensity. […]"}, "[5]": {"test_system": "new vessel growth induced by bFGF", "conditions": "chick chorioallantoic membrane; cited from earlier work"}, "[6]": {"test_system": "choroidal neovascularization", "conditions": "mouse, in vivo; cited from earlier work"}, "retina [7]": {"test_system": "retina", "conditions": "10 μM into the vitreous of normal adult mice; cited from earlier work"}}, "data": [{"smiles": "COc1ccc(CC2COc3cc(OC)c(OC)c(OC)c3C2=O)cc1OC(=O)[C@H](Cc1ccccc1)NC(=O)OC(C)(C)C", "note": "(some centres unmarked) [SH-11037]", "values": [{"measurement": "changes in pre-existing retinal vessels", "setting": "[1]", "value": "No changes"}, {"measurement": "reduction in CNV lesion volume (Z-stack images of agglutinin-stained choroidal flatmounts)", "setting": "CNV lesions; 0.1 μM intravitreal", "value": "no reduction"}, {"measurement": "reduction in CNV lesion volume (Z-stack images of agglutinin-stained choroidal flatmounts)", "setting": "CNV lesions; 0.3 μM intravitreal", "value": "no reduction"}, {"measurement": "reduction of CNV lesion volume", "setting": "CNV lesions; 1 μM intravitreal", "value": "about 42%"}, {"measurement": "vascular volumes of pre-existing CNV lesions relative to vehicle", "setting": "CNV lesions; 10 μM intravitreal single injection 5 days post laser, quantified 14 days post laser", "value": "significantly suppressed"}, {"measurement": "reduction of CNV lesion volume", "setting": "CNV lesions; 10 μM intravitreal", "value": "~55", "unit": "%"}, {"measurement": "leakiness of CNV lesions by fluorescein angiography", "setting": "CNV lesions; 14 days post laser, relative to vehicle treatment", "value": "reduced leakiness"}, {"measurement": "CNV vascular volumes at day 14 versus 5 days control", "setting": "CNV lesions; injection 5 days post laser (10 μM SH-11037; 5 ng anti-VEGF164)", "value": "no significant difference"}, {"measurement": "CNV lesion volumes by OCT, ellipsoid volume quantification", "setting": "CNV lesions; intravitreal 0.1, 0.3, 1, 10 μM immediately after laser, 7 days post-laser, vs vehicle, dose-dependent", "value": "significantly lower"}, {"measurement": "retinal thickness (A/B ratio) morphological changes", "setting": "retina [2]; intravitreal SH-11037, 3 and 14 days post injections, vs vehicle-treated and uninjected eyes", "value": "absence of morphological changes"}, {"measurement": "GFAP, cleaved caspase 3, TUNEL staining and MCP1 (retinal injury, apoptosis, inflammation)", "setting": "retina [2]; intravitreal SH-11037, 3 and 14 days, vs vehicle-treated controls", "value": "Neither shorter-nor longer-term SH-11037 treated retina showed any significant increases"}, {"measurement": "histological changes in H&E stained retinal sections", "setting": "retina [2]; intravitreal SH-11037 up to 100 μM final concentration, 3 and 14 days post injection, vs vehicle and no injection control eyes", "value": "no histological changes"}, {"measurement": "pathogenic retinal neovascularization in OIR model", "setting": "[3]", "value": "significantly suppressed"}, {"measurement": "ability of choroidal tissues to form sprouts (sprouting distance)", "setting": "mouse choroidal tissues; 0.03, 0.3, 1 μM, 48 hours, concentration-dependent, vs vehicle treated controls", "value": "significantly inhibited"}, {"measurement": "cell viability of choroidal sprouts by Trypan blue staining", "setting": "mouse choroidal tissues; 48 hours, 1 μM SH-11037 vs DMSO controls", "value": "absence of significant cell death"}, {"measurement": "potent inhibitory concentration in choroidal sprouting", "setting": "mouse choroidal tissues; ex vivo choroid microvascular tissue", "value": 0.03, "unit": "µM"}, {"measurement": "induction of apoptosis in HRECs", "setting": "[4]", "value": "without inducing apoptosis"}, {"measurement": "HREC migration", "setting": "[4]; concentration-dependent", "value": "inhibited"}, {"measurement": "HREC proliferation", "setting": "[4]; concentration-dependent", "value": "inhibited"}, {"measurement": "HREC tube formation", "setting": "[4]; concentration-dependent", "value": "inhibited"}, {"measurement": "ERG scotopic a- and b-waves, and photopic b-waves", "setting": "neural retina function", "value": "not significantly different"}]}, {"smiles": "COc1ccc(CC2COc3cc(O)c(OC)c(O)c3C2=O)cc1O", "note": "(centres unmarked) [cremastranone, 5,7-dihydroxy-3-(3-hydroxy-4-methoxybenzyl)-6-methoxychroman-4-one]", "values": [{"measurement": "blocking new vessel growth induced by bFGF", "setting": "[5]", "value": "as effective as retinoic acid"}, {"measurement": "pathogenic retinal neovascularization in OIR model", "setting": "[3]", "value": "showed efficacy"}, {"measurement": "pathogenic neovascularization in laser photocoagulation CNV model", "setting": "[6]", "value": "showed efficacy"}, {"measurement": "apoptosis of retinal cells", "setting": "retina [7]", "value": "nor did it induce apoptosis"}, {"measurement": "cytotoxic or inflammatory effects on the retina", "setting": "retina [7]", "value": "no cytotoxic or inflammatory effects"}]}]}
